In US8084478B2, “Substituted 5- phenylamino- 1, 3, 4-oxadiazol-2-ylcarbonylamino-4-phenoxy-cyclohexane carboxylic acid as inhibitors of acetyl coenzyme A diacylglycerol acyltransferase” (AsstraZeneca AB, priority 2006, dated 2011):

Key:
human DGAT1 = target: T1, human DGAT1 (Homo sapiens, UniProt O75907); assay: Human Enzyme Assay (DGAT1 activity, 14C oleoyl coenzyme A, insect cell membranes); type: biochemical; conditions: human DGAT1 expressed in sf9 insect cell membranes
T1 construct: made in house; host or cells: Sf9 insect cells, recombinant baculovirus; membrane fraction
T1 sequence (O75907 1-488): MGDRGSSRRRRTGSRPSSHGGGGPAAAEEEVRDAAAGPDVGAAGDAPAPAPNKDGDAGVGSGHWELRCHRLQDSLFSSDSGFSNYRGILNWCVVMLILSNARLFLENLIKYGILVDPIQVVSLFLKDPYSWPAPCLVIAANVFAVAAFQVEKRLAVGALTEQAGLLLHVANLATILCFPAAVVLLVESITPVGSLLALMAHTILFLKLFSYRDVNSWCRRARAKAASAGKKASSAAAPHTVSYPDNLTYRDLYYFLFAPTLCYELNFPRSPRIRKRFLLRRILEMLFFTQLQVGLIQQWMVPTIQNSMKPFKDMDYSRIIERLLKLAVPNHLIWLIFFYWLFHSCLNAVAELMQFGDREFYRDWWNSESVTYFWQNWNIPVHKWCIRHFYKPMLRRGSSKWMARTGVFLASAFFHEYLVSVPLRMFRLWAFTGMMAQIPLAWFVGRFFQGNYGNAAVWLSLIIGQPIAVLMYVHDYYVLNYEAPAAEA
Description: The in vitro assay to identify DGAT1 inhibitors uses human DGAT1 expressed in insect cell membranes as the enzyme source (Proc. Natl. Acad. Sci. 1998, 95, 13018-13023). Briefly, sf9 cells were infected with recombinant baculovirus containing human DGAT1 coding sequences and harvested after 48 h. Cells were lysed by sonication and membranes isolated by centrifuging at 28000 rpm for 1 h at 4° C. on a 41% sucrose gradient. The membrane fraction at the interphase was collected, washed, and stored in liquid nitrogen.
DGAT1 activity was assayed by a modification of the method described by Coleman (Methods in Enzymology 1992, 209, 98-102). Compound at 1-10 μM was incubated with 0.4 μg membrane protein, 5 mM MgCl2, and 100 μM 1,2 dioleoyl-sn-glycerol in a total assay volume of 200 μl in plastic tubes. The reaction was started by adding ^14C oleoyl coenzyme A (30 μM final concentration) and incubated at room temperature for 30 minutes. The reaction was stopped by adding 1.5 mL 2-propanol:heptane:water (80:20:2). Radioactive triolein product was separated into the organic phase by adding 1 mL heptane and 0.5 mL 0.1 M carbonate buffer pH 9.5. DGAT1 activity was quantified by counting aliquots of the upper heptane layer by liquid scintillography.

ACAT = ACAT enzyme assay; selectivity for DGAT over ACAT; type: biochemical; conditions: DGAT vs ACAT enzyme assays
Description: 3) The ability of compounds to inhibit ACAT can be measured using a modification of the enzyme assay described in Billheimer (1985) Methods in Enzymology, 111, 286-293. The test assesses the ability of a test compound to inhibit the esterification of cholesterol by measuring the amount of radiolabeled cholesteryl oleate formed from radiolabeled oleoyl CoA. Compound was incubated with 10 μg membrane protein and 267 μM cholesterol. After a 5 minute pre-incubation at 37° C. the reaction was started by adding ^14C oleoyl coenzyme A (50 μM final concentration) and incubated at 37° C. for a further 30 minutes. The reaction was stopped by adding 2-propanol:heptane (12:1). Radioactive cholesteryl ester product was separated into the organic phase by adding heptane and 1M carbonate buffer pH 9.5. ACAT activity was quantified by counting aliquots of the upper heptane layer by liquid scintillography.
The selectivity of a compound to inhibit DGAT over inhibition of ACAT may be defined as the ratio of IC50 values generated in the DGAT and ACAT enzyme assays for a particular compound.

IC50 (human DGAT1): 17 nM | selectivity to inhibit DGAT over inhibition of ACAT (ratio of IC50 values in the DGAT and ACAT enzyme assays) (ACAT): 310 fold
SMILES: O=C(Nc1ccc(O[C@H]2CC[C@H](C(=O)O)CC2)cc1)c1nnc(Nc2ccc(F)cc2)o1 [Example 13, trans-4-{4-[({5-[(4-fluorophenyl)amino]-1,3,4-oxadiazol-2-yl}carbonyl)amino]phenoxy}cyclohexanecarboxylic acid]
